Consider 52 molecules from PubChem BioAssay AID1996.

As usually defined, the kinetic solubility is the concentration staying in solution when a stock, usually in DMSO, is diluted into the medium.

≈ marks a conversion by molar mass, not a printed value. Bounds are passed on as bounds.

The conditions of this data set: buffer; pH 7.4; 200.0 µM.
Turning to `O=Cc1cnc(N2CCN(Cc3ccccc3)CC2)s1`, the kinetic solubility was greater than 43.1 µg/mL.

Consider `Cc1noc(C)c1S(=O)(=O)N(C)Cc1ccccc1`, for which the kinetic solubility turned out to be 38.5 µg/mL (≈ 137 µM). Then `O=c1[nH]c2ccc(S(=O)(=O)Nc3ccc(Cl)cc3)cc2[nH]1`, with 2.2 µg/mL (≈ 6.8 µM).

Molecule `CS(=O)(=O)N(CC(=O)Nc1cccc(Br)c1)Cc1ccccc1` showed a kinetic solubility of 51.3 µg/mL (≈ 129 µM). As for `CN1CC(=O)N(CC(=O)Nc2ccc(OCc3ccccc3)cc2)C1=O`, the solubility (kinetic) was found to be 45.7 µg/mL (≈ 129 µM).

In the case of `CCC(CC)C(=O)Nc1ccncc1`, the kinetic solubility is 10.9 µg/mL (≈ 56.7 µM).

In the case of `O=c1cc(C(F)(F)F)nc(SCc2cccnc2)[nH]1`, the kinetic solubility is greater than 43.1 µg/mL.

`COc1ccc(NC(=O)N2CCCc3cc(C)ccc32)c(OC)c1` showed a kinetic solubility of 27.8 µg/mL (≈ 85.2 µM).

The molecule `Cc1cc(Br)ccc1N=C1C(=O)Nc2ccccc21` gave a kinetic solubility of 8 µg/mL (≈ 25.4 µM). The molecule `O=C(c1cc(-c2ccccc2O)on1)N1CCOCC1` showed a solubility (kinetic) greater than 41.1 µg/mL. Then `Cn1c(COc2ccc(F)cc2)nc2ccccc21`, with 36.3 µg/mL (≈ 142 µM); and `CC(C)C(NC(=O)c1ccccc1F)C(=O)NCCCn1ccnc1` (configuration not stated), with greater than 52 µg/mL; and `CCN(CC(=O)NCc1ccco1)S(=O)(=O)c1ccc(OC)cc1`, with greater than 52.9 µg/mL. As for `O=C(NCc1ccccn1)Nc1ccccc1C(F)(F)F`, the solubility (kinetic) is greater than 44.3 µg/mL. The molecule `CCSc1ncc(Cl)c(C(=O)Nc2ccccc2C)n1` had a solubility (kinetic) of 0.5 µg/mL (≈ 1.62 µM).

The molecule `Cn1cccc1C(=O)OCC(=O)NC(=O)c1ccc(Cl)cc1` returned a kinetic solubility of 5.4 µg/mL (≈ 16.8 µM). On to `COc1ccc(C2(CNC(=O)c3ccccc3)CCCC2)cc1OC`, for which the kinetic solubility was determined as 8.2 µg/mL (≈ 24.2 µM). Then `CC(C)N(Cc1ccccc1)C(=O)COc1ccccc1`, with 36.6 µg/mL (≈ 129 µM); and `O=C(Nc1ccccc1Cl)c1ccc2ccccc2c1`, with less than 0.6 µg/mL; and `Cc1ccc(Nc2nc(N)c([N+](=O)[O-])c(NCCO)n2)cc1`, with 18.7 µg/mL (≈ 61.5 µM).

On to `Cc1cccc(NC(=S)NC(=O)c2oc3ccccc3c2C)n1`, for which the solubility (kinetic) was less than 0.2 µg/mL. Then `CC(C(=O)Nc1ccccc1)C(=O)Nc1ccccc1`, with 21.8 µg/mL (≈ 81.2 µM); and `Cn1c(/C=C/c2cccc([N+](=O)[O-])c2)nc2ccccc2c1=O`, with less than 0.2 µg/mL; and `O=C(C1CCCC1)N1CCN(S(=O)(=O)c2cccc(Cl)c2Cl)CC1`, with 27.4 µg/mL (≈ 70 µM). `COc1ccccc1-c1nc2cc(Cl)ccc2c(=O)n1O` registered a solubility (kinetic) greater than 45.4 µg/mL.

`O=c1c2c([nH]c3ccccc13)CCCCC2` registered a kinetic solubility greater than 32 µg/mL. With `CC(C)[C@H](NS(=O)(=O)c1ccccc1)C(=O)OCC(=O)NCc1ccc2c(c1)OCO2` the figure was greater than 67.3 µg/mL; with `COc1ccc(-c2nc3ccccc3c(=O)n2O)cc1`, 37.9 µg/mL (≈ 141 µM). Then `COc1cccc(C(=O)OCC(=O)NCC2CCCO2)c1` (configuration not stated), with greater than 44 µg/mL.

`COc1ccc2[nH]cc(CCN3C(=O)c4ccc(C(=O)O)cc4C3=O)c2c1` yielded a solubility (kinetic) greater than 54.7 µg/mL. With `N#CCOc1coc(CN2CCN(c3ccccc3)CC2)cc1=O` the figure was greater than 48.8 µg/mL; with `Cn1cc(/C=C/C(=O)c2ccccc2)c2ccccc21`, 0.7 µg/mL (≈ 2.68 µM); with `O=C(CCl)Nc1cccc(Oc2cnccn2)c1`, 39.4 µg/mL (≈ 149 µM). Molecule `COC(=O)c1ccccc1N=Cc1c(O)[nH]c(=O)[nH]c1=O` showed a kinetic solubility of 8.4 µg/mL (≈ 29 µM). With `Cc1c(Cl)cccc1NC(=S)NCc1ccco1` the figure was 40.1 µg/mL (≈ 143 µM); with `Cc1nc(N2CCOCC2)[nH]c(=O)c1[N+](=O)[O-]`, 33.1 µg/mL (≈ 138 µM); with `Cc1ccc(CNC(=O)c2ccc3c(c2)NC(=O)CS3)cc1`, 3.1 µg/mL (≈ 9.92 µM).

Consider `Cc1cc(NC(=O)COC(=O)C2CC2)ccc1Br`, for which the solubility (kinetic) was greater than 46.8 µg/mL. `O=Nc1ccc(O)c2ncccc12` registered a kinetic solubility greater than 26.1 µg/mL.

With `O=S(=O)(c1ccc(Cl)cc1)N1CCN(Cc2cccnc2)CC1`, the solubility (kinetic) was determined as 49.4 µg/mL (≈ 140 µM). For `Nc1c(C(=O)N2CCCC2)sc2nc(-c3ccccc3)ccc12`, the kinetic solubility is 2.1 µg/mL (≈ 6.49 µM).

The molecule `Cc1ccc(S(=O)(=O)CC(=O)NCc2ccccc2)cc1` showed a solubility (kinetic) of 29.7 µg/mL (≈ 97.9 µM). Then `O=C(NCC(=O)N1CCCCC1)c1ccc2ccccc2c1`, with greater than 44.5 µg/mL; and `COc1cccc(C2(O)C(=O)Nc3ccccc32)c1` (configuration not stated), with greater than 38.3 µg/mL. With `CN(C(=O)CSc1nnc(N)s1)C1CCCCC1` the figure was greater than 43 µg/mL; with `Cc1cc(C(=O)COC(=O)C2CC2)c(C)n1-c1ccc(F)cc1`, 12.9 µg/mL (≈ 40.9 µM); with `COc1cc(C(=O)NCCCc2ccccc2)cc(OC)c1OC`, greater than 49.4 µg/mL.

`Cc1ccnc(N2C(=O)c3ccccc3C2=O)c1` had a solubility (kinetic) greater than 35.7 µg/mL. Then `CCc1ccnc(NC(=O)Nc2ccc(OCc3ccccc3)cc2)c1`, with less than 0.2 µg/mL. The molecule `CNc1ccc([N+](=O)[O-])cc1C(=O)O` yielded a solubility (kinetic) of 26.7 µg/mL (≈ 136 µM). Molecule `COc1cc(NC(=O)COC(=O)CCc2nc3ccccc3c(=O)[nH]2)cc(OC)c1` registered a solubility (kinetic) of 60.7 µg/mL (≈ 148 µM). In the case of `OCCC1CN(CCCc2ccccc2)CCN1Cc1ccccc1` (configuration not stated), the solubility (kinetic) was greater than 50.8 µg/mL.
